Data as given in ChEMBL document CHEMBL1131451, “Structural and functional analyses of benzamidine-based inhibitors in complex with trypsin: implications for the inhibition of factor Xa, tPA, and urokinase” (J Med Chem, 1998).

Columns and labels:
Coagulation factor X = Coagulation factor X (Bos taurus, UniProt P00743); experiment: Inhibitory activity against bovine coagulation factor X expressed as dissociation constant
[1] = molecular target: Urokinase-type plasminogen activator (Homo sapiens, UniProt P00749); experiment: Inhibitory activity against human urokinase plasminogen activator expressed as dissociation constant
Prothrombin = Prothrombin (Bos taurus, UniProt P00735); experiment: Inhibitory activity against bovine thrombin expressed as dissociation constant
[2] = molecular target: Tissue-type plasminogen activator (Homo sapiens, UniProt P00750); experiment: Inhibitory activity against human tissue-type plasminogen activator expressed as dissociation constant
Tissue-type plasminogen activator, sequence (P00750 whole entry): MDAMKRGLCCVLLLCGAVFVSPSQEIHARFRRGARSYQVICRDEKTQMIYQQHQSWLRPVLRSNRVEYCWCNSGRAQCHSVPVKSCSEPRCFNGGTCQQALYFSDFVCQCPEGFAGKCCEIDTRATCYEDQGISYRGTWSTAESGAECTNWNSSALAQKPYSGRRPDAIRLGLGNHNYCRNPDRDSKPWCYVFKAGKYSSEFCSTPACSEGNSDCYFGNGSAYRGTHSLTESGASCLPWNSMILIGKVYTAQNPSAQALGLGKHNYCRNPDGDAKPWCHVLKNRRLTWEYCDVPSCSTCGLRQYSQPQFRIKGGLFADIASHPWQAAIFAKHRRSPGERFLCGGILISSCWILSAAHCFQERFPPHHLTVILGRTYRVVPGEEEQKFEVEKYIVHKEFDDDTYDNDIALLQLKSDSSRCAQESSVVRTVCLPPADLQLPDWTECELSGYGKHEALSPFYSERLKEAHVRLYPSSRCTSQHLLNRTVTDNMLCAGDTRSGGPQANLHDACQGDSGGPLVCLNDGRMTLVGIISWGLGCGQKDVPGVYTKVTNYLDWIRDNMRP

Serine protease 1 = molecular target: T1, Serine protease 1 (Bos taurus, UniProt P00760); experiment: Inhibitory activity against bovine trypsin expressed as dissociation constant
T1 sequence (P00760 whole entry): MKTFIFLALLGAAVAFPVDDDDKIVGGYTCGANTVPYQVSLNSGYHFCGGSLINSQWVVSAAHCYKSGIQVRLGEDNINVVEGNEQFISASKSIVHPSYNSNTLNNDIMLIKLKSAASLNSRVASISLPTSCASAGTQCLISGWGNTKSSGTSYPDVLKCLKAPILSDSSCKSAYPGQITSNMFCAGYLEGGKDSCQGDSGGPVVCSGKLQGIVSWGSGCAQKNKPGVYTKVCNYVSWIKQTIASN

Coagulation factor X, sequence (P00743 41-180 limits assumed): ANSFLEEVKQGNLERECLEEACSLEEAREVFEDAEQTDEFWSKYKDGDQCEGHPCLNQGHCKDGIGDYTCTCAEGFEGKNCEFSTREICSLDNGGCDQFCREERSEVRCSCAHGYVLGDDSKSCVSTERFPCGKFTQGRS
Coagulation factor X, sequence (P00743 234-492 limits assumed): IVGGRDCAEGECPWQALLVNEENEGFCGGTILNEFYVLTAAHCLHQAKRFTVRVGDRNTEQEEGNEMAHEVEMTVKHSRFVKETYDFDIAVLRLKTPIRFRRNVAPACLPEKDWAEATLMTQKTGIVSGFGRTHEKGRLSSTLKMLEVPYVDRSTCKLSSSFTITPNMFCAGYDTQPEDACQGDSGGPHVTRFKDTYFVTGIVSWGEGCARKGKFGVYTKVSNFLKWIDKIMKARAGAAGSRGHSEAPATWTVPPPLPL

Ki (Coagulation factor X) [µM] | Ki [1] [µM] | Ki (Prothrombin) [µM] | Ki [2] [µM] | Ki (Serine protease 1) [µM] | SMILES
2 | 2 | 0.075 | – | – | CC1CCN(C(=O)C(Cc2cccc(C(=N)N)c2)NS(=O)(=O)c2c(C(C)C)cc(C(C)C)cc2C(C)C)CC1 (configuration not stated)
– | 48 | – | – | – | N=C(N)c1cccc(CC(NS(=O)(=O)c2ccc3ccccc3c2)C(=O)N2CCNCC2)c1 (configuration not stated)
– | 38 | – | – | – | N=C(N)c1cccc(CC(NS(=O)(=O)c2ccc3ccccc3c2)C(=O)N2CCCCC2)c1 (configuration not stated)
18 | 4.5 | 0.22 | 24 | 0.0084 | CCOC(=O)C1CCN(C(=O)C(Cc2cccc(C(=N)N)c2)NS(=O)(=O)c2ccc3ccccc3c2)CC1 (configuration not stated)
64 | 56 | – | – | – | CC1CCN(C(=O)C(Cc2cccc(C(=N)N)c2)NC(=O)OC(C)(C)C)CC1 (configuration not stated)
42 | 34 | – | – | – | CC1CCN(C(=O)C(Cc2cccc(C(=N)N)c2)NS(=O)(=O)c2cccc3ccccc23)CC1 (configuration not stated)
1.7 | 0.41 | 0.49 | 0.57 | 0.037 | CCOC(=O)N1CCN(C(=O)C(Cc2cccc(C(N)N)c2)NS(=O)(=O)c2c(C(C)C)cc(C(C)C)cc2C(C)C)CC1 (configuration not stated)
32 | 35 | 0.13 | – | 0.53 | CC1CCCN(C(=O)C(Cc2cccc(C(=N)N)c2)NS(=O)(=O)c2ccc3ccccc3c2)C1 (configuration not stated)
2.3 | 40 | – | – | – | CC1CCN(C(=O)C(Cc2cccc(C(=N)N)c2)NS(=O)(=O)c2ccc3c(c2)C(=O)c2ccccc2C3=O)CC1 (configuration not stated)
71 | 25 | – | – | – | Cc1ccc(S(=O)(=O)NC(Cc2cccc(C(=N)N)c2)C(=O)N2CCC(C)CC2)cc1 (configuration not stated)
2.7 | 1.4 | 1.1 | 0.95 | 0.2 | CC(C)c1cc(C(C)C)c(S(=O)(=O)NC(Cc2cccc(C(N)N)c2)C(=O)N2CCN(C(=O)OCc3ccccc3)CC2)c(C(C)C)c1 (configuration not stated)
– | > 1000 | 0.006 | 70 | – | NC(N)c1ccc(CC(NC(=O)CNS(=O)(=O)c2ccc3ccccc3c2)C(=O)N2CCCCC2)cc1 (configuration not stated)
160 | – | 890 | – | – | N=C(N)c1ccccc1 [BENZAMIDINE]
95 | 16 | – | – | – | Cc1cc(C)c(S(=O)(=O)NC(Cc2cccc(C(=N)N)c2)C(=O)N2CCC(C)CC2)c(C)c1 (configuration not stated)
– | 41 | – | – | – | N=C(N)c1cccc(CC(NS(=O)(=O)c2ccc3ccccc3c2)C(=O)N2CCN(c3ccccc3)CC2)c1 (configuration not stated)
0.013 | 3.4 | 0.32 | 0.035 | 0.09 | NC(N)c1ccc(/C=C2\CCCC/C(=C\c3ccc(C(N)N)cc3)C2=O)cc1
3 | > 1000 | 9.6 | 69 | 9.2 | CNC(=O)C(Cc1cccc(C(N)N)c1)NC(=O)CNS(=O)(=O)c1ccc2ccccc2c1 (configuration not stated)
230 | 800 | – | – | – | CC1CCN(C(=O)C(N)Cc2cccc(C(=N)N)c2)CC1 (configuration not stated)
2.5 | 1.6 | 1.8 | 0.98 | 0.46 | CC(C)c1cc(C(C)C)c(S(=O)(=O)NC(Cc2cccc(C(N)N)c2)C(=O)N2CCCC(C(=O)NCc3ccccc3)C2)c(C(C)C)c1 (configuration not stated)
– | 78 | 3.9 | 23 | 5.7 | COC(=O)C(Cc1cccc(C(N)N)c1)NC(=O)CNS(=O)(=O)c1ccc(C)cc1 (configuration not stated)
15 | 55 | 0.34 | 120 | – | Cc1ccc(S(=O)(=O)NC(Cc2cccc(C(N)N)c2)C(=O)N2CCCCC2)cc1 (configuration not stated)
0.24 | 49 | 1.2 | 33 | 3.7 | CC(C)OC(=O)C(Cc1cccc(C(N)N)c1)NC(=O)CNS(=O)(=O)c1ccc2ccccc2c1 (configuration not stated)

SMILES | Ki (Coagulation factor X) [µM] | Ki [1] [µM] | Ki (Prothrombin) [µM] | Ki [2] [µM] | Ki (Serine protease 1) [µM]
COC(=O)C1CCCN(C(=O)C(Cc2cccc(C(=N)N)c2)NS(=O)(=O)c2ccc3ccccc3c2)C1 (configuration not stated) | 18 | 26 | 0.15 | – | –
COC(=O)C1CCN(C(=O)C(Cc2cccc(C(=N)N)c2)NS(=O)(=O)c2ccc3ccccc3c2)CC1 (configuration not stated) | 43 | 9.3 | 0.017 | – | –
CC1CCN(C(=O)C(Cc2cccc(C(=N)N)c2)NS(=O)(=O)c2ccc3ccccc3c2)CC1 (configuration not stated) | – | 31 | – | – | –
